Reference: article PMC11706420, “Establishing a physiologically based pharmacokinetic framework for aldehyde oxidase and dual aldehyde oxidase‐CYP substrates” (CPT: Pharmacometrics & Systems Pharmacology, 2024)
Where two headings read alike, the source gives them in different places.

Key:
aldehyde oxidase (AO) [1] = target: T1, aldehyde oxidase (AO) (Homo sapiens, UniProt Q06278); assay: In vitro AO inhibition (literature); conditions: Figure 5
T1 sequence (Q06278 1-1338): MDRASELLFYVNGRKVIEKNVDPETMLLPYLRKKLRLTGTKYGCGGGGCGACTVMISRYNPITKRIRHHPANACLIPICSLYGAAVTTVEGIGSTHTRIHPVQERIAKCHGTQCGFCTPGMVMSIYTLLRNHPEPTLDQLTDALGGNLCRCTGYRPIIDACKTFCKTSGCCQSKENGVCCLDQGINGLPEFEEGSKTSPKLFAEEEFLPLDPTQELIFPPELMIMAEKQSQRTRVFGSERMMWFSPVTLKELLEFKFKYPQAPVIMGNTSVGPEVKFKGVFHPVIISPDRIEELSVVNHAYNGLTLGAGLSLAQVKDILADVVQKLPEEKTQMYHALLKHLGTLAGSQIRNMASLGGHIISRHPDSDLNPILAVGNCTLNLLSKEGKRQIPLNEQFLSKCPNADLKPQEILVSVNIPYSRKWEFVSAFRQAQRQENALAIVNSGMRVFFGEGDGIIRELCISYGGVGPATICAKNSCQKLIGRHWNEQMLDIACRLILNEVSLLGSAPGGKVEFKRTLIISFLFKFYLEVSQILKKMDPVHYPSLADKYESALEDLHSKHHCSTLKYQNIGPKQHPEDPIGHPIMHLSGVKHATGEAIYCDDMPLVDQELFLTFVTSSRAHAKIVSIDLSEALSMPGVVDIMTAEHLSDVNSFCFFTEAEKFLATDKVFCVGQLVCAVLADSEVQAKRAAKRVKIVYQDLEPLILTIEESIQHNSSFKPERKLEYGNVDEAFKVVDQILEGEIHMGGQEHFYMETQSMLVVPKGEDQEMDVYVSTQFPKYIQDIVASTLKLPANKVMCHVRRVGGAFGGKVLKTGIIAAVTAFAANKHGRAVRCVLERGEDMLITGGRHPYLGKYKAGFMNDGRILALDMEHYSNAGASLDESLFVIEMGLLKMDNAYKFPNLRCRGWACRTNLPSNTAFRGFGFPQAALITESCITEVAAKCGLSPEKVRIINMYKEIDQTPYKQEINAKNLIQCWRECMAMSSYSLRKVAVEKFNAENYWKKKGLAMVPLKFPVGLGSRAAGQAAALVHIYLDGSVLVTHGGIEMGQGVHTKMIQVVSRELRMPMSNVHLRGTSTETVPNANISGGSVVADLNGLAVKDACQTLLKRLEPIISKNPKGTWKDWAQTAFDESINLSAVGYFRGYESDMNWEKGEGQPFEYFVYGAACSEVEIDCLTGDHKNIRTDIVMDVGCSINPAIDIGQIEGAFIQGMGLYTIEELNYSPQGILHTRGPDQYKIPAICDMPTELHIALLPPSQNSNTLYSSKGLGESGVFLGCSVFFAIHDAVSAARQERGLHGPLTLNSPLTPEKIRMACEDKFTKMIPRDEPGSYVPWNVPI
Excerpt: (§1) Supplement 5. Exploratory analysis to evaluate potential AO-mediated DDI risks […]
(§2) Semi-mechanistic model for AO-mediated DDI risk predictions
(§3) Supp. Table 4. Summary of inhibitor parameters used in the semi -mechanistic static model to evaluate the risk of AO -mediated DDIs
(§4) Semi-mechanistic model for AO mediated DDI risk predictions: […]
(§5) using the semi-mechanistic static model with listed parameters in Suppl. Table 4. The most conservative approach is used for all compounds with maximum Cmax,u and minimum Ki,u data available. […]
(§6) [I] is the unbound concentration of inhibitors in the liver and was designated as the unbound maximum systemic concentration of inhibitors as a surrogate. 27 Due to the lack of AO kdeg values in the literature, the arithmetic means of all reported P450 kdeg (0.00026 min-1) was used.28, 29 […]
(§7) Table S4. Summary of inhibitor parameters used in the semi-mechanistic static model to evaluate the risk of […]
(§8) bSimcyp v.21 Compound Repository […]
(§9) dCorrected for the 0.05 mg/mL cytosolic protein from the measured fuinc at 1.5 mg/mL cytosolic protein34, 36

[2] = Inhibitor plasma exposure and plasma binding (literature); assay type: in vivo, human; conditions: Figure 5
Excerpt: as §1, §2, §3, §4, §5, §6, §7, §8, §9

aldehyde oxidase (AO) [3] = target: T1, aldehyde oxidase (AO); conditions: cited from earlier work; for Mode of inhibition: ref suppl. 30, 31, 32, 35, 59
UGT1A1 = tested on: UGT1A1; design: method as in suppl. 32; conditions: ref suppl. 32; cited from earlier work
UGT1A3 = tested on: UGT1A3; design: method as in suppl. 32; conditions: ref suppl. 32; cited from earlier work
[4] = in vivo; cited from earlier work
aldehyde oxidase (AO) [5] = target: T1, aldehyde oxidase (AO); conditions: cited from earlier work
[6] = Plasma protein binding (fup), rapid equilibrium dialysis; assay type: in vitro ADME, human; conditions: male, human, plasma, 20 h, 1 µM
Procedure: (differing in 2 donors) were used for activity and microsomal binding assays, respectively.
The human biological samples were sourced ethically, and their research use was in accord with the terms of the informed consents under an IRB/EC approved protocol.
Determination of plasma protein binding (fup):
Human plasma (male, K2EDTA) was obtained from BioIVT (Baltimore, MD, USA). A pool of n=20 donors was prepared in-house (batch: 16062022). The plasma protein binding of compounds in human was determined by equilibrium dialysis using the rapid equilibrium dialysis (RED) device (Thermo […]
Frozen blank human plasma […]
solution to a final concentration of 1 µM (0.5 % DMSO). 300 µ L of the fortified plasma samples were subjected to dialysis against 500 µL PBS buffer at pH 7.4, for 6 h at 37 °C in triplicate. After dialysis, 200 µl aliquots of the buffer and the plasma compartments were transferred into micronic tubes. To minimize the potential for non -specific binding to the micronic tubes the buffer sam ples were collected on to 50µl of 10 % bovine serum albumin (BSA). For the assessment of test compound stability in plasma, 300 µl aliquots of the spiked plasma solutions were transferred into micronic tubes and incubated in an air heated incubator at 37°C without shaking for 4 and 20 hours. The remaining spiked protein solutions were frozen and used to measure the initial start concentration ( C0) to calculate the recovery. Sample analysis was achieved by LC -MS/MS and absolute quantification of the drug lev els in the buffer and plasma compartments was achieved via a matrix matched calibration curve (in the presence of an internal standard tolbutamide). All buffer and plasma sample sets were matrix matched […]
for analysis. The samples were centrifuged (15 minutes, 3400 g) and supernatants were transferred to a fresh plate for analysis. The unbound concentration (Cu), and the total concentration (CED) were determined by measurement of the concentration of the test compound in the buffer and plasma compartments of the dialysis cells, respectively. The fraction unbound was calculated using Eq. S1.
fuplasma = Cu/CED (Eq. S1)
The percentage recovery was calculated as the ratio of the sum of the amount in the buffer (Au) and plasma (AED) compartments to the amount at time zero (A0) (Eq. S2). The percentage stability was calculated as the ratio of the concentration of the test compound at the end of the incubation (C t) time […]
% recovery = (( Au + AED ) / A0 ) × 100 (Eq. S2)

[7] = Blood-to-plasma ratio (B/P); assay type: in vitro ADME, human
Excerpt: Determination of blood to plasma ratio (B/P):
Whole human blood was collected on the day of the experiment from healthy volunteers. The collection protocol was approved by an independent ethical committee and all donors signed the consent forms. All samples were registered in the Janssen Biobank.
Prewarmed blood aliquots were mixed with the compounds (final concentrations shown in Suppl. Table 5) with a final organic DMSO solvent concentration of ≤0.1% (v/v). After gentle mixing to avoid haemolysis, blood aliquots were immediately collected for protein precipitation (1:1:8 ratios of blood sample:DMSO:ACN) and centrifugation (10 minutes, 3800 g) and the supernatant was used as a 0-minute reference blood sample. At the same time, blood aliquots were taken and centrifuged (10 minutes, 1200 g) to obtain the plasma portion. Plasma aliquots were then immediately collected for protein precipitation (1:1:8 ratios of plasma sample:DMSO:ACN) and centrifugation (10 minutes, 3800 g) and the supernatant was used as a 0-minute reference plasma sample. The remainder of the blood fraction was incubated (30 min at 37 °C). Following incubation, 30 -minute blood and plasma samples were taken and prepared as described for the reference 0-minute samples.
Mean compound concentration values (n=3 replicates) were calculated for both the blood and plasma samples. A blood-to-plasma concentration ratio was then determined using Eq. S4. […]

[8] = In vitro permeability (Papp), transwell transport; conditions: dog, MDCK
[9] = both, human, 6 h, 2 µM, pH 7.4
Procedure: Microsomal binding (fumic):
(§10) The fraction unbound in human liver microsomes (fumic) of compounds was determined by equilibrium
(§11) dialysis using the high-throughput dialysis method 2 using membranes from HTDialysis, LLC (Gales
(§12) Ferry, CT) having 12 to 14 kDa molecular mass cutoff. Deactivated HLM (by leaving the HLM
(§13) incubation media on the bench overnight at ambient temperature) at 0.25 mg/mL with 2 µM of
(§14) compounds (a final concentration of DMSO as 1%) was added to the donor compartment in 50 mM
(§15) phosphate buffer containing 1 M MgCl2. (150 µL, n=4 per compound). 150 µL of Dulbecco’s PBS
(§16) buffer (pH 7.4) was added to the receiver chamber for each replicate. After reaching equilibrium for 6
(§17) h on a plate shaker (200 rpm) at 37°C in a humidified CO2 incubator (5% CO2), aliquots from both the
(§18) receiver (45 µL) and donor (15 µL) sides of the membrane were matrix matched and analyzed by LC-
(§19) MS/MS. Matrix stability (n=3) and % of recovery (n=4) were assessed.
(§20) Data analysis for binding in microsomal and cytosolic incubations:
(§21) Fraction unbound in microsomal (fumic) and cytosolic (fucyt) incubations were calculated via Eq. S10-11
(§22) based on the ratio of the peak areas of analyte and internal standard.
(§23) 𝑃𝑒𝑎𝑘 𝐴𝑟𝑒𝑎 𝑅𝑎𝑡𝑖𝑜 = (𝑃𝑒𝑎𝑘 𝐴𝑟𝑒𝑎 𝑜𝑓 𝐴𝑛𝑎𝑙𝑦𝑡𝑒)/(𝑃𝑒𝑎𝑘 𝐴𝑟𝑒𝑎 𝑜𝑓 𝐼𝑛𝑡𝑒𝑟𝑛𝑎𝑙 𝑆 tan 𝑑 𝑎𝑟𝑑) (Eq. S10)
(§24) 𝑓𝑢𝑚𝑖𝑐 𝑜𝑟 𝑓𝑢𝑐𝑦𝑡 = (𝑃𝑒𝑎𝑘 𝐴𝑟𝑒𝑎 𝑅𝑎𝑡𝑖𝑜 𝑖𝑛 𝑟𝑒𝑐𝑒𝑖𝑣𝑒𝑟 𝑐𝑜𝑚𝑝𝑎𝑟𝑡𝑚𝑒𝑛𝑡)/
(§25) concentration (0.5 mg/mL) using Hallifax and Houston algorithm (Hallifax and Houston, 2006). Matrix
(§26) stability and recovery were assessed using Eq. S12 and Eq. S13.
(§27) %𝑠𝑡𝑎𝑏𝑖𝑙𝑖𝑡𝑦 = (𝐴𝑣𝑒𝑟𝑎𝑔𝑒 𝑝𝑒𝑎𝑘 𝑎𝑟𝑒𝑎 𝑖𝑛 𝑚𝑎𝑡𝑟𝑖𝑥 𝑎𝑡 𝑡ℎ𝑒 𝑒𝑛𝑑 𝑜𝑓 𝑖𝑛𝑐𝑢𝑏𝑎𝑡𝑖𝑜𝑛)/
(§28) (𝐴𝑣𝑒𝑟𝑎𝑔𝑒 𝑝𝑒𝑎𝑘 𝑎𝑟𝑒𝑎 𝑎𝑡 𝑇 = 0) × 100 (Eq. S12)
%𝑟𝑒𝑐𝑜𝑣𝑒𝑟𝑦 = (𝐴 + 𝐵)/𝐶 × 100 (Eq. S13)
(§29) where A is the average peak area ratio of all matrix samples, B is the average peak area ratio
(§30) of all buffer samples multiplied with the buffer dilution factor and C is the average peak area ratio of

CYP3A4 = conditions: cited from earlier work
in vitro = conditions: both, human, microsomes
Procedure: Subcellular fractions of human and dog liver were sourced from XenoTech (Kansas City, KS, USA). In vitro CLint,u was measured with substrate depletion and binding assays for all compounds (1 μM) in human liver microsomes (HLM; 0.25–0.5 mg/mL) and HLC (1 mg/mL).
Microsomal clearance incubations (CLint):
Human liver microsomes were stored at −80°C and rapidly thawed just before use at 37°C.
All compounds were mixed with HLM and 50 mM
phosphate buffer. 450 µL of the mixture was added to 1.2mL cluster tubes in a 96-well block in
duplicate and warmed in a water bath (Thermo Scientific Precision™,Waltham MA, USA ) at 37°C for
5 min. Reactions were initiated by the addition of 50 µL from 10 mM of NADPH stock in 50 mM
phosphate buffer (final NADPH concentration, 1 mM). The final incubation contained 1 µM test
compound in 500 µL total volume with 0.02% DMSO. At each time point (5, 10, 20, 30, and 60 min),
60 µL of incubation mixture was added to 120 uL of quench solutions (MeOH:ACN, 1:1, v:v)
containing internal standard (0.5 µM carbutamide). The mixture was centrifuged at 3000 rpm for 20
min (Eppendorf 5810R, Hamburg, Germany). Supernatant was injected to HPLC-MS/MS with for data
Data analysis for substrate depletion assays:
Data from the microsomal and cytosolic incubations were analyzed using GraFit 7 (Erithacus Software,
Horley, UK) to determine the elimination rate constant (k), which was used in CLint calculation (Eq.
S9). A nonlinear single exponential fit was used for all compounds.
𝐶𝐿 = 𝑘 × 𝑣𝑜𝑙𝑢𝑚𝑒 𝑜𝑓 𝑖𝑛𝑐𝑢𝑏𝑎𝑡𝑖𝑜𝑛 (Eq S9)

[10] = with 25 μM hydralazine; cited from earlier work
[11] = cited from earlier work
[12] = cited from earlier work; remark: listed apart in the source
[13] = cited from earlier work; remark: listed apart in the source
[14] = Microsomal binding (fumic); conditions: corrected with Hallifax&Houston algorithm
Procedure: Microsomal binding (fumic):
as §10, §11, §12, §13, §14, §15, §16, §17, §18, §19, §20, §21, §22, §23, §24, §25, §26, §27, §28
%𝑟𝑒𝑐𝑜𝑣𝑒𝑟𝑦 = (𝐴 + 𝐵)/𝐶 × 100 (Eq. S13)
as §29, §30

[15] = Cytosolic binding (fucyt), dog liver cytosol; conditions: 1 mg/mL; n=3, mean (CV%)
Procedure: In vitro data were generated to inform the PBPK models of the selected drugs (Supplement 1 in Appendix S1; Table S1). Subcellular fractions of human and dog liver were sourced from XenoTech (Kansas City, KS, USA). In vitro CLint,u was measured with substrate depletion and binding assays for all compounds (1 μM) in human liver microsomes (HLM; 0.25–0.5 mg/mL) and HLC (1 mg/mL). HLC pool was prepared from livers perfused with Custodiol HTK (histidine tryptophan ketoglutarate) solution, marketed as having preserved “high AO/XO activity.”[15] Dog liver cytosols (DLC; 1 mg/mL) were used to investigate cytosolic binding in the absence of AO. Routine in vitro assays were used to quantify unbound fraction in plasma (fup), blood‐to‐plasma ratio (B/P), and apparent permeability (Papp) through transwell transport assays utilizing canine Mdr1 knockout and empty vector‐transfected MDCKI cells.
𝐶𝐿 = 𝑘 × 𝑣𝑜𝑙𝑢𝑚𝑒 𝑜𝑓 𝑖𝑛𝑐𝑢𝑏𝑎𝑡𝑖𝑜𝑛 (Eq S9)
Cytosolic binding (fucyt):
The fraction unbound in human liver cytosols (fucyt) of compounds was determined by equilibrium
dialysis using the RED device (Thermo Fisher, Waltham MA, USA) with a molecular weight cut-off of
8 kDa. Dog or human liver cytosols at 1 mg/mL with 1 µM of compounds (300 µL, n=3 per compound)
were added to the donor compartment in 100 mM potassium phosphate buffer with final DMSO
liver cytosols to inactivate AO, whereas dog was used as a natural AO knock-out model. 500 µL of 100
mM potassium phosphate buffer (pH 7.35) was added to the receiver chamber for each replicate.
RED device was then sealed with an adhesive foil and incubated on an orbital shaker at 450 rpm (VWR
Symphony) at 37°C with 5 % CO2. After reaching equilibrium for 4 hours, aliquots from both the
receiver (30µL) and donor (30µL) sides of the membrane were matrix matched, and then quenched with
180 µL of cold ACN with 100 nM propranolol (internal standard). The samples were placed in a
Beckman Coulter Allegra x 12R Centrifuge (Brea, CA) for 15 minutes at 3700 rpm. After centrifugation,
the supernatant of each sample was diluted 1:2 and analyzed by LC -MS/ MS. Matrix stability and
recovery were assessed in triplicates and followed identical sample preparation.
Microsomal binding (fumic):
as §10, §11, §12, §13, §14, §15, §16, §17, §18, §19, §20, §21, §22, §23, §24, §25, §26, §27, §28
%𝑟𝑒𝑐𝑜𝑣𝑒𝑟𝑦 = (𝐴 + 𝐵)/𝐶 × 100 (Eq. S13)
as §29

[16] = Cytosolic binding (fucyt), human liver cytosol with AO inhibitor; conditions: 1 mg/mL; n=3, mean (CV%)
[17] = DDI study with rifampicin (capmatinib 400, idelalisib 150, lenvatinib 24 mg) or carbamazepine (ziprasidone 20 mg), observed, ref suppl. 15,18,21,25
[18] = with itraconazole (capmatinib 200 mg) or ketoconazole (idelalisib 400, lenvatinib 5, ziprasidone 40 mg), observed, ref suppl. 15,10,17,20,24
[19] = with rifampicin (capmatinib 400, idelalisib 150, lenvatinib 24 mg) or carbamazepine (ziprasidone 20 mg), observed, ref suppl. 15,18,21,25
[20] = observed (mass balance), capmatinib 600 mg section, ref suppl. 8

For `C#Cc1cccc(Nc2ncnc3cc(OCCOC)c(OCCOC)cc23)c1` [Erlotinib], the Ki (aldehyde oxidase (AO) [1]; KI,u) was 500 nM, the Ki (aldehyde oxidase (AO) [1]; Ki,u) was 130 nM and the “Cmax,u” value [2] was 0.42 µM. The Mode of inhibition (aldehyde oxidase (AO) [3]) was “Time-dependent”, the IC50 (UGT1A1) was 1340 nM and the Ki (UGT1A3) was 3020 nM. For the same molecule, the Cmax [4] was 6.06 µM.
In the case of `NC(=O)c1nc(F)c[nH]c1=O` [favipiravir], the “fmAO of victim drug in AO DDI reports” value (aldehyde oxidase (AO) [5]) is given as 0.9.
With `CNC(=O)c1ccc(-c2cnc3ncc(Cc4ccc5ncccc5c4)n3n2)cc1F` [Capmatinib] the “% Stability in plasma” value [6] was 78.8%, the B/P ([7]; 10 ng/mL) was 3.95 and the B/P ([7]; 5000 ng/mL) was 1.37. The Papp A→B at 120 min, 5 µM [8] was 32 ×10⁻⁶ cm/s, the Papp B→A at 120 min, 5 µM [8] was 29.5 ×10⁻⁶ cm/s and the efflux ratio at 120 min, 5 µM [8] was 0.921. The “fumic (PBPK input)” value [9] was 0.826, the “Cmax, control” value (CYP3A4; DDI study with itraconazole (capmatinib 200 mg) or ketoconazole (idelalisib 400, lenvatinib 5, ziprasidone 40 mg), observed geomean (CV%), ref suppl. 15,10,17,20,24) was 1260 ng/mL and the “AUCinf, control” value (CYP3A4; DDI study with itraconazole (capmatinib 200 mg) or ketoconazole (idelalisib 400, lenvatinib 5, ziprasidone 40 mg), observed, ref suppl. 15,10,17,20,24) was 5180 ng·h/mL. For the same molecule, the “AUCinf, control (AUC0-12 for ziprasidone)” value (CYP3A4; [17]) was 11500 ng·h/mL, the “Cmax, control” value (CYP3A4; [17]) was 3070 ng/mL and the “AUCinf, interaction” value (CYP3A4; [18]) was 7360 ng·h/mL. The “Cmax, interaction” value (CYP3A4; [18]) was 1300 ng/mL, the “AUCinf, interaction (AUC0-12 for ziprasidone)” value (CYP3A4; [19]) was 3850 ng·h/mL and the “Cmax, interaction” value (CYP3A4; [19]) was 1350 ng/mL. For the same molecule, the microsomal CLint at 1 µM (in vitro) was 30.4 µL/min/mg, the “HH CLint, non-AO” value [10] was 7.8[21] μL/min/10^6 hepatocytes and the pKa1 ([11]; 47 (per cell)) was 12.8[44]. The pKa2 ([11]; 47 (per cell)) was 4.55[44], the logP ([11]; octanol-water, 12 (per cell)) was 3.04[44] and the fa [12] was 0.67[48]. For the same molecule, the AUCinf ([12]; human, in vivo, po) was 14400 (36.9) ng.h/mL, the CLoral ([12]; human, in vivo, po) was 51.7 (66.5) L/h and the Cmax ([12]; human, in vivo, po) was 3670 (46.6) ng/mL. For the same molecule, the CLRenal ([12]; observed, ref Table S2/S3 studies) was “Negligible”, the “CLiv/oral [CV%]” value ([12]; oral, capmatinib weighted mean and CV, ref Table S2/S3 studies) was 42.3 [60] (weighted mean and CV) L/h and the fmAO ([13]; measured in excreta, ref suppl. 8-13) was 0.40. The fmAO ([13]; measured in excreta, ref suppl. 8-13, listed as capmatinib) was 0.4, the fmAO ([13]; observed (mass balance), min-max where uncertain, Table S10, ref suppl. 8-13) was 40 and the fmCYP3A4 ([13]; observed (mass balance), min-max where uncertain, ref suppl. 8-12) was 60. The fmAO [13, 20] was 40, the fmCYP3A4 [13, 20] was 60 and the fmAO ([13]; observed, mass balance) was 40%. The fmCYP3A4 ([13]; ref suppl. 8-12) was 0.6, the “Predicted fumic for 0.5 mg/mL” value [14] was 0.707 and the “Predicted fumic for 1 mg/mL” value [14] was 0.549. The “fucyt, Dog Liver Cytosol with 50 uM Hydralazine” value [15] was 0.718 (2.47), the “fucyt, Human Liver Cytosol with 5 uM Raloxifene” value [16] was 0.777 (8.48) and the “fucyt, Human Liver Cytosol with 50 uM Hydralazine” value [16] was 0.831 (2.65).
In the case of `O=C(Nc1ccc(OC(F)(F)F)cc1)c1sccc1NCc1ccnc2ccccc12` [OSI-930], the “fmAO of victim drug in AO DDI reports” value (aldehyde oxidase (AO) [5]) is given as 0.46.
For `C#Cc1cccc(Nc2ncnc3cc4c(cc23)OCCOCCOCCO4)c1` [Icotinib], the Ki (aldehyde oxidase (AO) [1]; cytosol, KI,u) was 920 nM, the Ki (aldehyde oxidase (AO) [1]; cytosol, Ki,u) was 350 nM and the “Cmax,u” value [2] was 0.57 µM. For the same molecule, the Mode of inhibition (aldehyde oxidase (AO) [3]) was “Time-dependent”, the “Maximal inactivation rate (kinact)” value (aldehyde oxidase (AO) [3]; ref suppl. 32) was 0.55 min⁻¹ and the IC50 (UGT1A1) was 12200 nM. The Ki (UGT1A3) was 25600 nM.
